Source: patent US5565444A, “Osteogenesis promoter and osteoporosis remedy” (LTT Institute Co., Ltd., priority 1993, dated 1996)
Read-outs that look alike come from different tables or passages of the source.

How the values were obtained:
[1] = tested on: Osteogenic Precursor Cells in Bone Marrow; assay: Effects on the number of osteogenic precursor cells in bone marrow, Experiment 2 (FCFU formation after subcutaneous administration); format: in vivo; conditions: 7 successive days, Lewis rat, N = 4
Protocol: (§1) After the invention compound was administered to a 7-weeks old Wistar or Lewis rat intraperitoneally (Experiment 1) or dorsi-subcutaneously (Experiment 2) for 7 successive days, the femurs and tibias were excised. Marrow cells were collected from the bones so obtained, followed by incubation in a 25-cm^2 culture flask for 7 days. For the incubation, the αMEM medium containing 15% fetal calf serum was used. Subsequent to giemsa or alkaline phosphatase staining, the number of fibroblast colony forming units on the culture flask was counted. The number of the fibroblast colony forming units (=FCFUs) is known to correlate with the in vitro ostogenesis. The total number of FCFUs and the number of FCFUs positive to alkaline phosphatase are shown in Table 1 and Table 2, respectively. Experiment 1:
Influence of the subcutaneous administration of
the invention compounds and testosterone for 7
successive days on the formation of FCFUs:
The number of FCFUs (after 7 days) (Lewis rat N = 4)

[2] = background report, cited from earlier work
[3] = tested on: anterior lobe of prostate; assay: Androgenic action, Hershberge method (1); format: in vivo, castrated Wistar male rat; conditions: 10 successive days, FIG. 8
Protocol: (§2) (1) In accordance with the Hershberge method, a castrated, 4-weeks old, Wistar, male rat (6 rats per group) was subcutaneously administered with 11-OH-Δ^4- A at 0.1-0.3 mg/rat/day for 10 successive days. Similarly, a vehicle (sesame oil) was administered to the Sham-operated group and a control group, and testosterone propionate (T.P.) was administered at 0.1 mg/rat/day as a positive control. On the day following the completion of the administration, the anterior lobe of prostate and the musculus levator ani were excised and weighed. From a change in the weight of the anterior lobe of the prostate and the musculus levator ani, androgenic action and anabolic action were studied.

musculus levator ani = assay: Anabolic action, Hershberge method (1); format: in vivo, castrated Wistar male rat; conditions: 0.3 mg/rat/day subcutaneous, 10 successive days; FIG. 8
Protocol: as §2

[4] = Improving effects on the bone mass reduction in postovariectomy osteoporosis (bone-salt amount by DXA); format: in vivo, female Wistar rat (ovariectomized); conditions: three times a week, 3 months, FIGS. 3-6
Protocol: From a 7-weeks old female Wistar rat, the ovaria were both excised. Three months after that, the administration of a drug was started. As the drug, 11β-OH-^4 -A or dihydroepiandrosterone (DHEA) was dorsisubcutaneously administered three times a week, each, at 1 mg/kg. After the drug administration was continued for 3 months, the femurs and shinbones were collected and the bone-salt amount was measured at three places, that is, the proximal end, diaphysis and distal end. The measurements of the bone-salt amount were conducted using an Aloka DCS-600 model by dual energy X-ray absorptiometry (DXA).

[5] = tested on: Osteogenic Precursor Cells in Bone Marrow; assay: Effects on the number of osteogenic precursor cells in bone marrow, Experiment 1 (FCFU formation after intraperitoneal administration); format: in vivo; conditions: 1 mg/kg intraperitoneal, 7 successive days; Wistar rat, N = 4; after 7 days incubation
Protocol: as §1
Influence of the intraperitoneal administration of
the invention compound at 1 mg/kg for 7 successive
days on the formation of FCFUs:
The number of FCFUs (after 7 days) (Wistar rat N = 4)

Acute toxicity test = conditions: in vivo, sc; subcutaneous, Wistar rat
Protocol: An acute toxicity test of the invention compound 11β-OH-Δ^4 -A was conducted in the following manner.
To a Wistar rat, 11β-OH-Δ^4 -A was subcutaneously administered in an amount considered to be an intoxicating dose. The conditions of the rat were observed and at the same time, the LD50 value was determined.

osteocalcin = assay: Effects on serum osteocalcin (radioimmunoassay); format: in vivo, Wistar rat
Protocol: A 7-weeks old Wistar rat was intraperitoneally administered at 0.1 mg/kg with 11β-OH-Δ^4 -A for 7 successive days and the concentration of osteocalcin in the serum was measured by radioimmunoassay.

[6] = tested on: osteogenic precursor cells; assay: Improving effects on the osteogenesis depression in postovariectomy osteoporosis (FCFU forming ability); format: in vivo, female Wistar rat (ovariectomized)
Protocol: From a 7-weeks old female Wistar rat, the ovaria were both excised and three months after that, administration of a drug was started. As the drug, 11β-OH-Δ^4 -A, was administered dorsi-subcutaneously three times a week, each, at 0.1 mg/kg or 1 mg/kg. Subsequent to the administration of the drug for 1 month, the femurs and shinbones were collected. From the right femur and both the shinbones, osteoblasts were collected and the formation of colonies (FCFUs) of osteogenic precursor cells was observed.

Question: With `C[C@]12C=CC(=O)C=C1CC[C@@H]1[C@@H]2[C@@H](O)C[C@]2(C)C(=O)CC[C@@H]12` [11β-OH-Δ^1,4 -A, 11β-hydroxy-1,4-androstadiene-3,17-dione] as the molecule, how does the “The number of FCFUs positive for alkaline phosphatase” value (from here on “The number of FCFUs positive”) ([1]; 0.1 mg/kg subcutaneous) read?
Answer: 85 ± 11

Question: And the “The total FCFU number” value ([1]; 0.1 mg/kg subcutaneous)?
Answer: 178 ± 20

Question: And the “The number of FCFUs positive” value ([1]; 1 mg/kg subcutaneous)?
Answer: 117 ± 12

Question: And the “The total FCFU number” value ([1]; 1 mg/kg subcutaneous)?
Answer: 217 ± 22

Question: What does the source list for `C[C@]12CC[C@H]3[C@@H](CCC4=CC(=O)CC[C@@]43C)[C@@H]1CC[C@@H]2O` [Testosterone, reference compound]?
Answer: The number of FCFUs positive for alkaline phosphatase ([1]; 1 mg/kg subcutaneous): 62 ± 5; The total FCFU number ([1]; 1 mg/kg subcutaneous): 149 ± 5

Question: With estrogen as the molecule, how does the “effect on bone mass of ovariectomized animals” value (shortened to “effect on bone mass”) [2] read?
Answer: evident curative effect for a decrease in the bone mass of an ovariectomized animal

Question: With `C[C@]12CCC(=O)C=C1CC[C@@H]1[C@@H]2[C@@H](O)C[C@]2(C)C(=O)CC[C@@H]12` [11β-OH-Δ^4 -A, 11β-hydroxy-4-androstene-3,17-dione] as the molecule, how does the “weight of the prostate” value ([3]; 0.1-0.3 mg/rat/day (0.6-1.8 mg/kg/day) subcutaneous) read?
Answer: a significant increase in the weight of the prostate

Question: And the Androgenic action ([3]; 0.1-0.3 mg/rat/day subcutaneous)?
Answer: very weak

Question: And the “weight of the musculus levator ani (anabolic action)” value (musculus levator ani)?
Answer: An increase in the weight of the musculus levator ani

Question: And the “bone-salt amount at places of the femur” value ([4]; 1 mg/kg dorsi-subcutaneous)?
Answer: recovered to similar levels to those of the Sham-operated rat

Question: And the “bone-salt effects compared with dihydroepiandrosterone” value ([4]; 1 mg/kg each, dorsi-subcutaneous)?
Answer: more potent than those of dihydroepiandrosterone

Question: What about the “The number of FCFUs positive” value [5] of the same molecule?
Answer: 40 ± 11

Question: And the “The total FCFU number” value [5]?
Answer: 160 ± 35

Question: And the LD50 (Acute toxicity test)?
Answer: ≥ 1000 mg/kg

Question: What about the Serum osteocalcin concentration (osteocalcin; 0.1 mg/kg intraperitoneal, 7 successive days) of the same molecule?
Answer: 72.6 ± 2.7 ng/mL

Question: What about the Serum osteocalcin concentration (osteocalcin; 5 mg/kg) of the same molecule?
Answer: 75.5 ± 1.0 ng/mL

Question: And the “concentration of osteocalcin (in words)” value (osteocalcin; successive administration)?
Answer: increase the concentration of osteocalcin

Question: And the “osteogenesis depression observed after the ovariectomy” value ([6]; 0.1 mg/kg thrice a week for a month)?
Answer: successfully normalized back the osteogenesis depression observed after the ovariectomy

Question: And the FCFU formation ([6]; 0.1 mg/kg, dorsi-subcutaneous, three times a week, 1 month, FIG. 2)?
Answer: a marked increase in the FCFU formation

Question: What about the “The number of FCFUs positive” value ([1]; 0.1 mg/kg subcutaneous) of the same molecule?
Answer: 96 ± 16

Question: And the “The total FCFU number” value ([1]; 0.1 mg/kg subcutaneous)?
Answer: 180 ± 9

Question: And the “The number of FCFUs positive” value ([1]; 1 mg/kg subcutaneous)?
Answer: 128 ± 19

Question: What about the “The total FCFU number” value ([1]; 1 mg/kg subcutaneous) of the same molecule?
Answer: 189 ± 26

Question: With `C[C@]12CC[C@H](O)CC1=CC[C@@H]1[C@@H]2CC[C@]2(C)C(=O)CC[C@@H]12` [dihydroepiandrosterone (DHEA), dihydroepiandrosterone] as the molecule, how does the “effect on bone mass” value [2] read?
Answer: extremely weak

Question: What about the “effect on bone mass” value ([2]; listed as dihydroepiandrosterone) of the same molecule?
Answer: bone-salt improving effects on the ovariectomized rat
